Measured values reported in patent publication US4560684A, “1,4-Benzodiazepine derivatives” (priority 1982, dated 1985).
Where a name gives a salt, the structure may show the parent alone. Read-outs that look alike come from different tables or passages of the source.

Legend:
[1] = test system: tetrabenazine (TBZ) induced ptosis; experiment: Antagonism to the tetrabenazine (TBZ) induced ptosis; format: in vivo, DS male mice; conditions: Mus musculus, sc, read-out: Anti-TBZ ptosis (ED50)
Experimental: (§1) Each compound was used in the form of 0.5 to 1% suspension made by mixing
(§2) with its half volume of arabic gum.
**Antagonism to the tetrabenazine (TBZ) induced ptosis: To several groups
of DS male mice in 4 to 5 weeks age, each group consisting of 5 mice was
subcutaneously administered the test compound. Half an hour later, 50
mg/kg of tetrabenazine was subcutaneously administered. Degree of the
ptosis in 1 hour was scored, and the result was subjected to the rigid
conversion. The ED50 value was obtained from the regression

[2] = test system: pentylenetetrazole (PTZ) induced convulsion; experiment: Antagonism to the pentylenetetrazole (PTZ) induced convulsion; format: in vivo, ddy male mice; conditions: Mus musculus, read-out: Anti-PTZ convulsion (ED50)
Experimental: as §1, §2
***Antagonism to the pentylenetetrazole (PTZ) induced convulsion: To
several groups of ddy male mice in 4 to 5 weeks age, each group consistin
of 8 mice was orally administered the test compound. Half an hour later,
125 mg/kg of pentylenetetrazole was subcutaneously administered, and the
number of mice surviving during 2 hours was observed. The ED50 value
was obtained from the survival number according to the probit method.

[3] = DS male mice, subcutaneous, half an hour before tetrabenazine 50 mg/kg s.c., ptosis scored in 1 hour
[4] = ddy male mice, oral, half an hour before pentylenetetrazole 125 mg/kg s.c., survival during 2 hours

Row | Structure (SMILES) | ED50 ([1]; 1 h) [mg/kg] | ED50 ([2]; po, 2 h) [mg/kg] | ED50 [1, 3] [mg/kg] | ED50 [2, 4] [mg/kg]
1 | CN1CCC(N2C(=O)CN=C(c3ccccc3)c3ccccc32)CC1 [Compound 6] | 0.26 | > 20 | – | –
2 | Cc1ccc2c(c1)C(c1ccccc1F)=NCC(=O)N2C1CCN(C)CC1 [Compound 15] | 0.839 | > 10 | – | –
3 | O=C1CN=C(c2ccccc2F)c2cc(Cl)ccc2N1C1CCNCC1 [Compound 23, 7-chloro-1,3-dihydro-5-(2-fluorophenyl)-1-(4-piperidinyl)-2H-1,4-benzodiazepin-2-one] | – | – | 0.075 | 8.52
4 | O=C1CN=C(c2ccccc2)c2ccccc2N1C1CCNCC1 [Compound 26, 1-(4-piperidinyl)-1,3-dihydro-5-phenyl-2H-1,4-benzodiazepin-1-one hydrobromide] | – | – | 0.063 | > 10
5 | CN(C)CCCN1c2ccccc2CCc2ccccc21 [imipramine, reference compound] | 0.799 | > 10 | – | –
6 | CN1CCC(N2C(=O)CN=C(c3ccccc3F)c3ccccc32)CC1 [Compound 8, 1-(1-methyl-4-piperidinyl)-1,3-dihydro-5-(2-fluorophenyl)-2H-1,4-benzdiazepin-2-one] | 0.205 | > 10 | – | –
7 | CN1CCC(N2C(=O)CN=C(c3ccccc3F)c3cc(Cl)ccc32)CC1 [Compound 10] | 1.3 | 0.77 | – | –
